Converted amounts (≈) assume the structure as drawn.
Tests used:
Escherichia coli = assay: Toxicity (MIC) of dialkylated lariat ethers on E. coli; format: cell-based; settings: E. coli XL1 blue, 12 h, visual turbidity, read-out: minimum inhibitory concentration (MIC)
Procedure: The cyto-toxicity was determined by measuring the minimum inhibitory concentrations (MIC) for this series of dialkylated lariat ethers in the Gram-negative bacteria Escherichia coli, the Gram-positive bacteria Bacillus subtilis, and human embryonic kidney (HEK293T) cells.
On bacteria. XL1 blue strain Escherichia coli cells transformed with a pET28a plasmid (which contains a kanamycin resistance gene) were grown at 37° C. in 2 mL of LB medium (Miller's LB broth, Research Products International) supplemented with 50 μg/mL of kanamycin until the optical density (600 nm) reached 0.600. The starting density of bacteria in the remainder of the experiments was a 1/100 dilution of this bacterial density, which was split into 4 mL cultures. A series of 400, 100, 10 and 5 mM stock solutions of each dialkylated diaza(18-crown-6) compounds in trifluoroethanol (TFE) were diluted by adding to the 4 mL cultures until final concentrations of 400, 200, 100, 50, 20, 15, 10, 5, 4, 3, 2 and 1 μM were reached, with the final TFE concentration never >0.1% v/v. Negative controls in the presence of TFE 0.1% v/v or the absence of any treatment were done for each batch. The cultures were incubated at 37° C. with agitation for 12 h. Bacillus subtilis (168 WT) toxicity tests were carried out using an identical protocol, except for the addition of the antibiotic. […]

[1] = Planar lipid bilayer ion channel recordings; format: biochemical
Procedure: Experiments in planar lipid bilayers were performed via a Nanion Orbit-mini planar bilayer system. The planar membranes were formed by painting a 25 mg/mL solution of lipids in n-nonane over the four 50 μm apertures on the chip. The lipids used were asolectin from soybean (Sigma-Aldrich) or a 3:1 w/w mix of 1-palmitoyl-2-oleoyl-sn-glycero-3-phosphoethanolamine (POPE) and 1-palmitoyl-2-oleoyl-sn-glycero-3-phospho-(1′-rac-glycerol) (POPG) (Avanti Polar lipids). The solutions tested were KCl solution (150 mM KCl, 10 mM HEPES, pH adjusted to 7.4 with KOH), NaCl solution (150 mM NaCl, 10 mM HEPES, pH adjusted to 7.4 with NaOH), and a concentrated KCl solution (500 mM KCl, 10 mM HEPES, pH adjusted to 7.4 with KOH). When the appropriate membrane formed, the voltage was clamped at 100 mV or −100 mV, and a stock solution of gramicidin D (Sigma-Aldrich) in DMSO or LEC10 in TFE were added up to the desired concentration. The tested concentration of gramicidin D was 1 nM and 2, 10, 100 and 200 μM were tested for LEC10. Two different temperatures were tested for each condition: 25 and 37° C. The current was recorded over 10 min for the gramicidin test and up to 1 h for the LEC10 test. The data was analyzed with Clampfit 10.7 software (Axon Instruments).
FIGS. 41 and 42 show the lipid bilayer recordings. Current through the asolectin planar lipid bilayer clamped at 100 mV was recorded in the presence of […] (FIG. 41) and 2 μM LEC10 (FIG. 42). In both cases, the solution was 150 mM KCl, 10 mM HEPES, pH 7.4. […] This lack of unitary channel formation, or even a carrier-like increase of the conductance, precludes an ionophore-like mechanism of ion transport.

B. subtilis cells = assay: Lactate dehydrogenase release (resofurin fluorescence), MAcBCE/MAkBCE and controls; format: cell-based, Bacillus subtilis; settings: 2 μM, 37° C, potassium lactate/NAD+ solution
Procedure: A 2 mL liquid culture of transformed B. subtilis cells was grown at 37° C. in LB media supplemented with […] kanamycin, until OD600=0.6. Cells were collected by centrifugation at 2000 rpm over 3 min. The bacterial pellet was washed twice in lactate/NAD^+ solution (95 mM potassium lactate, 10 mM nicotinamide adenine dinucleotide (NAD^+), 10 mM HEPES, pH adjusted to 7.4 with KOH). After the last centrifugation step, the bacteria were resuspended until OD600=1.0 in the lactate/NAD^+ solution, then diluted 100× in the same solution. The working fluorophore solution was a 1 mM of resazurin sodium salt (Alfa Cesar) in water. The experiment was started with 3 mL of lactate/NAD^+ solution in a quartz cuvette, then 3.1 μL of resazurin solution was added (timepoint t1, 50 sec) for a 1 μM final concentration, followed by the addition of 100 μL of the diluted B. subtilis suspension (timepoint t2, 100 sec). After 150 sec (timepoint t3, 250 sec), 10 μL of diaphorase (Worthinton Biochemical Corporation) 10 mg/mL solution was added. The final step involved the addition of 0.62 μL of a 10 mM stock solution of dialkylated diaza lariat ether (LEC10) in TFE (timepoint t4, 400 sec), for a final LEC10 concentration of 2 μM; or 3.1 μL of a 2 mM stock solution of valinomycin in DMSO, for a final valinomycin concentration of 2 μM; or 3.1 μL of a 20 mg/mL stock solution of lysozyme in lactate/NAD^+ solution, for a final lysozyme concentration of 20 μg/mL; or 3.1 μL of 10 mM stock solution of each MAcBCE or MAkBCE compounds in TFE, for final concentrations of 10 μM. Fluorescence intensity was recorded each second using a Horiba Fluoromax 4 spectrometer (λexcitation=550 nm; λemission=583 nm). […] To normalize, the fluorescence intensity was divided by the fluorescence level just before timepoint t4. […]
Experiments were repeated at least three times per condition. To normalize, the fluorescence intensity was divided by the fluorescence level just before timepoint t4.

In the case of `CCCCCCCCCCN1CCOCCOCCN(CCCCCCCCCC)CCOCCOCC1` [LEC10, Didecyl diaza(18-crown-6)], the MIC (Escherichia coli) is reported as 10 µM (≈ 5.43 µg/mL), the ion channel activity ([1]; 2 μM, bilayer clamped at 100 mV, 150 mM KCl, 10 mM HEPES, pH 7.4) is reported as “no ion channel activity was detected” and the ion channel activity ([1]; LEC10 10, 100 and 200 μM, KCl up to 500 mM or NaCl instead of KCl) is reported as “no indication of ion channel activity”. For the same molecule, the “resofurin fluorescence (LDH release)” value (B. subtilis cells) was “increase in the resofurin fluorescence levels”.

Reference: patent US20230060873A1, “COMPOUNDS AND METHODS FOR FORMING ION CHANNELS IN BIOLOGICAL MEMBRANES” (Washington University, priority 2021, published 2023)
